Data on 20 compounds can be found in patent US6884796B2, “Meiosis regulating compounds” (NovoNordisk A/S, priority 1998, dated 2005).

For data set [1], the system named is naked oocytes (NO). Put plainly: Agonistic oocyte assay: germinal vesicle breakdown and polar body formation in naked oocytes cultured in Hx-medium. The format is cell-based, mice. The conditions noted are these: 10 mikroM; for mean % GVB / mean % PB: naked oocytes (NO) cultured in vitro for 24 hours in Hx-medium; for mean Relative Effect: naked oocytes (NO), 24 hours, indexed: control = 0, FF-MAS = 100. The procedure: An agonistic oocyte assay can be performed as follows:
Oocytes were obtained from immature female mice (C57BU6J x DBA/2J F1, Bomholtgaard, Denmark) weighing 13-16 grams, that were kept under controlled temperature (20-22° C.), light (lights on 06.00-18.00) and relative humidity (50-70%). The mice received an intra-peritoneal injection of 0.2 ml gonadotropins (Gonal-F, Serono) containing 20 IU FSH and 48 hours later the animals were killed by cervical dislocation.
The ovaries were dissected out and the oocytes were isolated in Hx-medium (see below) under a stereo microscope by manual rupture of the follicles using a pair of 27 gauge needles. Spherical oocytes displaying an intact germinal vesicle (hereinafter designated GV) were divided in cumulus enclosed oocytes (hereinafter designated CEO) and naked oocytes (hereinafter designated NO) and placed in a-minimum essential medium (α-MEM without ribonucleosides, Gibco BRL, Cat. No. 22561) supplemented with 3 mg/ml bovine serum albumin (BSA, Sigma Cat. No. A-7030), 5 mg/ml human serum albumin (HSA, Statens Seruminstitute, Denmark), 0.23 mM pyruvate (Sigma, Cat. No S-8636), 2 mM glutamine (Flow Cat. No. 16-801), 100 IU/ml penicillin and 100 μg/ml streptomycin (Flow, Cat No. 16-700). This medium was supplemented with 3 mM hypoxanthine (Sigma Cat. No. H-9377) and designated Hx-medium.
The oocytes were rinsed three times in Hx-medium and oocytes of uniform size were divided into groups of CEO and NO. CEO and NO were cultured in 4-well multidishes (Nunclon, Denmark) in which each well contained 0.4 ml of Hx-medium. One control well (i.e., 35-45 oocytes cultured in identical medium with no addition of test compound) was always cultured simultaneously with 3 test wells (35-45 oocytes per well supplemented with test compound).
The oocytes were cultured in a humidified atmosphere of 5% CO2 in air for 24 hours at 37° C. By the end of the culture period, the number of oocytes with germinal vesicle (hereinafter designated GV), germinal vesicle breakdown (hereinafter designated GVB) and polar bodies (hereinafter designated PB), respectively, were counted using a stereomicroscope (Wildt, Leica MZ 12). The percentage GVB, defined as percentage of oocytes undergoing GVB per total number of oocytes in that well, was calculated as: % GVB=(number of GVB+number of PB/total number oocytes)×100.
The % PB was defined as percentage of oocytes displaying one extruded polar body per total number of oocytes in that well.
The effect of the tested compounds has been indexed against control level and 4,4-dimethyl-5α-cholesta-8,14,24-trien-3β-ol (hereinafter designated FF-MAS) where controls and FF-MAS are indexed to an effect of 0 and 100, respectively. The relative effect of the tested compound is calculated as follows: Relative effect=((test GVB %−control GVB %)/(FF-MAS GVB %−control GVB %))×100. Results

The subject of data set [2] is naked oocytes (NO). The conditions noted are these: Byskov et al. Nature 374 (1995), 559-562; cited from earlier work.

One may read the melting point as the temperature, or range, at which the solid turns liquid.

For the compound `CC(=O)NCCC[C@@H](C)[C@H]1CC=C2C3=C(CC[C@@]21C)[C@@]1(C)CC[C@H](O)C(C)(C)[C@@H]1CC3`, the melting point was in the range of 219 to 221 °C.

`C[C@H](CCC(=O)O)[C@H]1CC[C@H]2C3=CC=C4C(C)(C)[C@@H](O)CC[C@]4(C)[C@H]3CC[C@]12C` had a melting point of 210 to 213 °C.

On to `C=C(C)CCC[C@@H](C)[C@H]1CC=C2C3=C(CC[C@@]21C)[C@@]1(C)CC[C@H](O)C(C)(C)C1CC3` (stereo partly drawn) [Example 33, 4,4-Dimethylcholest-8,14,25-trien-3β-ol], for which, in the data set on naked oocytes (NO) [1], the “mean % GVB” value amounted to 70%, the “mean % PB” value was 14.5% and the “mean Relative Effect” value was 105. In the case of `C[C@H](CCC(=O)OC1CCCCC1)[C@H]1CC=C2C3=C(CC[C@@]21C)[C@@]1(C)CC[C@H](O)C(C)(C)[C@@H]1CC3`, the melting point fell in the range of 130 to 132 °C. Turning to `C[C@H](CC1CCCCC1)[C@H]1CC=C2C3=C(CC[C@@]21C)[C@@]1(C)CC[C@H](O)C(C)(C)[C@@H]1CC3` [Example 23, (20R), 4,20-Trimethyl-21-(cyclohexyl)-5α-pregna-8,14-dien-3β-ol], in the data set on naked oocytes (NO) [1], the “mean % GVB” value is 73.5%, the “mean % PB” value worked out at 21.5% and the “mean Relative Effect” value was determined as 98. On the same counts, the results for `C[C@H](CCC(=O)Nc1ccccc1)[C@H]1CC=C2C3=C(CC[C@@]21C)[C@@]1(C)CC[C@H](O)C(C)(C)[C@@H]1CC3` [Example 10, 3β-Hydroxy-4,4-dimethyl-5α-chola-8,14-dien-24-oic acid-N-phenyl amide] are 10%, 3% and −10. On the same counts, the results for `Cc1ccc(C[C@@H](C)[C@H]2CC=C3C4=C(CC[C@@]32C)[C@@]2(C)CC[C@H](O)C(C)(C)[C@@H]2CC4)cc1` [Example 21, (20R)-4,4,20-Trimethyl-21-(4-methylphenyl)-5α-pregna-8,14-dien-3δ-ol] are 82%, 29.5% and 98. Turning to `C[C@H](CCCNc1ccccc1)[C@H]1CC=C2C3=C(CC[C@@]21C)[C@@]1(C)CC[C@H](O)C(C)(C)[C@@H]1CC3`, the melting point is 178 to 180 °C. Consider `C[C@H](CCC(=O)NC(C)(C)C)[C@H]1CC=C2C3=C(CC[C@@]21C)[C@@]1(C)CC[C@H](O)C(C)(C)[C@@H]1CC3`, for which the melting point lay in the range of 171 to 176 °C. For the compound `CC(C)=CCC[C@@H](C)[C@H]1CC=C2C3=C(CC[C@@]21C)[C@@]1(C)CC[C@H](O)C(C)(C)[C@@H]1CC3` [FF-MAS, 4,4-dimethyl-5α-cholesta-8,14,24-trien-3β-ol, reference compound], in the data set on naked oocytes (NO) [1], the “mean % GVB” value is reported as 86.1%, the “mean % PB” value stood at 28.5% and the “mean Relative Effect” value is listed as 100. Besides, the “induction of meiosis in NO in vitro” value in the data set with naked oocytes (NO) [2] is “induce meiosis”. Turning to `C[C@H](CCC(=O)O)[C@H]1CC=C2C3=C(CC[C@@]21C)[C@@]1(C)CC[C@H](O)C(C)(C)[C@@H]1CC3` [Example 4, 3β-Hydroxy-4,4-dimethyl-5α-chola-8,14-dien-24-oic acid], in the data set with naked oocytes (NO) [1], the “mean % GVB” value came to 10.5%, the “mean % PB” value was 3.5% and the “mean Relative Effect” value is −10. In turn, `COC(=O)CC[C@@H](C)[C@H]1CC[C@H]2C3=CC=C4C(C)(C)[C@@H](O)CC[C@]4(C)[C@H]3CC[C@]12C` had a melting point of 124 to 128 °C. On the same count and under the same terms, with `C[C@H](CCC(N)=O)[C@H]1CC=C2C3=C(CC[C@@]21C)[C@@]1(C)CC[C@H](O)C(C)(C)[C@@H]1CC3` the figure was 233 to 235 °C; with `C[C@H](CCCC(C(=O)O)C(=O)O)[C@H]1CC=C2C3=C(CC[C@@]21C)[C@@]1(C)CC[C@H](O)C(C)(C)[C@@H]1CC3`, 188 to 190 °C. In the case of `CC(C)C(=O)CC[C@@H](C)[C@H]1CC=C2C3=C(CC[C@@]21C)[C@@]1(C)CC[C@H](O)C(C)(C)[C@@H]1CC3` [Example 6, 3β-Hydroxy4,4-dimethyl-5α-cholesta-8,14-dien-24-one], in the data set on naked oocytes (NO) [1], the “mean % GVB” value was 88%, the “mean % PB” value is recorded as 11% and the “mean Relative Effect” value came to 110.

`CC(=O)CC[C@@H](C)[C@H]1CC=C2C3=C(CC[C@@]21C)[C@@]1(C)CC[C@H](O)C(C)(C)[C@@H]1CC3` returned a melting point of 183 to 185 °C. The same measure, in the same setting: as for `CCOC(=O)CC[C@@H](C)[C@H]1CC=C2C3=C(CC[C@@]21C)[C@@]1(C)CC[C@H](O)C(C)(C)[C@@H]1CC3`, the figure is 122 to 124 °C; as for `COC(=O)CC[C@@H](C)[C@H]1CC=C2C3=C(CC[C@@]21C)[C@@]1(C)CC[C@H](O)C(C)(C)[C@@H]1CC3`, 156 to 157 °C; as for `C[C@H](CCCOCc1ccccc1)[C@H]1CC=C2C3=C(CC[C@@]21C)[C@@]1(C)CC[C@H](O)C(C)(C)[C@@H]1CC3`, 114 to 115 °C.

As for `C[C@H](CCC(=O)OCc1ccccc1)[C@H]1CC=C2C3=C(CC[C@@]21C)[C@@]1(C)CC[C@H](O)C(C)(C)[C@@H]1CC3`, the melting point fell in the range of 118 to 119 °C.
